This experiment has as its target T1, Pancreatic triacylglycerol lipase (Sus scrofa) (UniProt P00591).
T1 sequence (whole entry): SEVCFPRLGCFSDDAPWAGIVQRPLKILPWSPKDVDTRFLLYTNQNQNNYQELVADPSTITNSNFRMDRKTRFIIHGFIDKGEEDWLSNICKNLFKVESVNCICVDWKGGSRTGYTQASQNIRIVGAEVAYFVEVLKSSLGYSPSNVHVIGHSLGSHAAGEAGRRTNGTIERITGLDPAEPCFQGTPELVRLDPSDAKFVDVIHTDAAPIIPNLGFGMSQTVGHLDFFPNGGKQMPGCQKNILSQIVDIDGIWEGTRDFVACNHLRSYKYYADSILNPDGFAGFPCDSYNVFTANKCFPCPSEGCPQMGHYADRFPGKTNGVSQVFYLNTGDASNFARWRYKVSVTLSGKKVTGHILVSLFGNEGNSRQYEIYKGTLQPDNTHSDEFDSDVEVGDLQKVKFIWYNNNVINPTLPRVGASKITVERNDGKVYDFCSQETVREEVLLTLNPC
The experiment in a line: Inhibition of porcine pancreatic lipase assessed as p-NPB substrate hydrolysis at 100 uM after 15 mins by microplate reader.

Usually inhibition stands for the drop in the measured response relative to a control, in per cent. Turning to `O=Cc1ccc2n1C(Cc1ccc(O)cc1)C(=O)OC2` (configuration not stated), the inhibition worked out at 70%.
`COCc1ccc(C=O)n1C(C)C(=O)OC` (configuration not stated): the inhibition came out at 40%.

Source of the values: ChEMBL document CHEMBL3351927, “Pyrrole alkaloids from the fruits of Morus alba” (Bioorg Med Chem Lett, 2014).
